{
  "source": "paper PMC6934184",
  "about": "“Selective DNA-PKcs inhibition extends the therapeutic index of localized radiotherapy and chemotherapy” (The Journal of Clinical Investigation, 2019)",
  "molecular_target": "T1, PRKCA (PKC alpha) (Homo sapiens, UniProt P17252)",
  "T1 construct": "purchased Thermo Fisher Scientific (Life Technologies) SelectScreen",
  "experiment": "SelectScreen Z'LYTE",
  "type": "biochemical",
  "outline": "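SelectScreen broad panel; activity (Z'LYTE, Adapta) plus binding formats. ATP: Km app for CSF1R Z'LYTE; 10 for CAMK1 Adapta. Readout = % per kinase.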",
  "data": [
    {"smiles": "CN(C(=O)CN1CCOCC1)c1ccc2sc3c(-c4cccc5c(=O)cc(N6CC7CCC(C6)O7)oc45)cccc3c2c1", "note": "[NU5455]", "values": [
      {"measurement": "inhibition at 1 µM", "result": -2, "unit": "%"}
    ]}
  ]
}
